Laboratory results reported in the Deep4Chem optical property database.
Each block holds one molecule with its values, some of them ahead of it.

Assay: solvent given as SMILES
[1] = in O=P(c1ccccc1)(c1ccccc1)c1ccccc1Oc1ccccc1P(=O)(c1ccccc1)c1ccccc1

Structure (SMILES): C(#Cc1cc2ccc3cccc4ccc(c1)c2c34)c1ccccc1
fluorescence lifetime (in Cc1ccccc1): 71 ns

Structure (SMILES): Cc1cc2nc3[nH]c(=O)n(C)c(=O)c3nc2cc1C
fluorescence lifetime (in CC#N): 0.64 ns

Structure (SMILES): Cc1cc(C)c(B(c2ccc(-n3c4ccccc4c4ccccc43)cc2)c2c(C)cc(C)cc2C)c(C)c1
fluorescence lifetime (in Cc1ccccc1): 3.7 ns

Structure (SMILES): COC(=O)C([NH3+])Cc1ccc2oc(-c3ccncc3)nc2c1 (stereo not given)
fluorescence lifetime (in CC1CCCCC1): 3.12 ns | fluorescence lifetime (in CC#N): 6.09 ns | fluorescence lifetime (in CO): 0.742 ns | fluorescence lifetime (in O): 0.999 ns

Structure (SMILES): CN1CCCc2cc3c(C(F)(F)F)cc(=O)oc3cc21
fluorescence lifetime (in C1CCCCC1): 4.2 ns | fluorescence lifetime (in CC#N): 5.6 ns | fluorescence lifetime (in CCO): 5.1 ns

Structure (SMILES): Nc1ccc(/C=C/c2cccnc2)cc1
fluorescence lifetime (in CC#N): 0.18 ns | fluorescence lifetime (in CCCCCC): 0.22 ns

Structure (SMILES): Cc1ccc(/C2=c3\cc/c(o3)=C(\c3ccc(C)cc3)c3ccc([nH]3)-c3ccc4n3[B-](F)(F)[N+]3=C(C=CC3=C4c3ccco3)c3ccc2[nH]3)cc1
fluorescence lifetime (in ClC(Cl)Cl): 4.1 ns

Structure (SMILES): COc1ccc2c3c([nH]c2c1)C(C)=NCC3
fluorescence lifetime (in CC#N): 5.29 ns | fluorescence lifetime (in CS(C)=O): 2.91 ns | fluorescence lifetime (in O): 4.65 ns

Structure (SMILES): O=S(=O)(c1ccc(N(c2ccccc2)c2ccccc2)cc1)c1ccc(N(c2ccccc2)c2ccccc2)cc1
fluorescence lifetime (in Cc1ccccc1): 2.2 ns | fluorescence lifetime [1]: 3.5 ns

Structure (SMILES): CCN(CC)c1ccc2cc(C#N)c(=O)oc2c1
fluorescence lifetime (in ClCCl): 2.7 ns

Structure (SMILES): COc1ccc(N(c2ccc(OC)cc2)c2ccc(-c3ccc4c(c3)C(=O)c3ccccc3C4=O)cc2)cc1
fluorescence lifetime (in CCCCCC): 7.04 ns | fluorescence lifetime (in Cc1ccccc1): 1.09 ns | fluorescence lifetime (in ClC(Cl)(Cl)Cl): 5.94 ns

Structure (SMILES): COc1ccc(N(c2ccc(/C=C(\C)c3ccccc3)cc2)c2ccc(/C=C(\C)c3ccccc3)cc2)cc1
fluorescence lifetime (in Cc1ccccc1): 1.5 ns

Structure (SMILES): N#Cc1c(-n2c3ccccc3c3cc(I)ccc32)c(-n2c3ccccc3c3cc(I)ccc32)c(C#N)c(-n2c3ccccc3c3cc(I)ccc32)c1-n1c2ccccc2c2cc(I)ccc21
fluorescence lifetime (in Cc1ccccc1): 0.3 ns

Structure (SMILES): Cc1ccc2c(c1)c1cc(C)ccc1n2-c1cccc(-n2c3ccc(C)cc3c3cc(C)ccc32)c1C#N
fluorescence lifetime (in Cc1ccccc1): 5.5 ns | fluorescence lifetime [1]: 6.6 ns

Structure (SMILES): CC1=C(c2ccc(N(c3ccccc3)c3ccccc3)cc2)C(C)=[N+]2C1=C(c1c(-c3ccccn3)nc3ccccn13)c1c(C)cc(C)n1[B-]2(F)F
fluorescence lifetime (in ClCCl): 0.2 ns

Structure (SMILES): COc1cc(/C=C/c2nc(N3CCOCC3)c3c([n+]2[O-])CCCC3)cc(OC)c1OC
fluorescence lifetime (in ClCCl): 8.5 ns

Structure (SMILES): CCCCCCC(CCCCCC)N1C(=O)c2cccc3c(-c4cc(OC)c(OC)c(OC)c4)ccc(c23)C1=O
fluorescence lifetime (in CCCCCC): 2.03 ns | fluorescence lifetime (in CCCCCCCCCCCCCC): 2.78 ns | fluorescence lifetime (in CCCCCCCCCCCO): 1.75 ns | fluorescence lifetime (in CCCCO): 0.208 ns | fluorescence lifetime (in CN(C)C=O): 0.119 ns | fluorescence lifetime (in Cc1ccccc1): 5.4 ns | fluorescence lifetime (in ClC(Cl)Cl): 6.62 ns

Structure (SMILES): N#Cc1ccc(-c2cc(-c3ccc(N4CCCC4)cc3)nc(-c3ccccc3)n2)cc1
fluorescence lifetime (in ClC(Cl)Cl): 3.3 ns

Structure (SMILES): Cc1cn(C(F)(F)F)c(=O)[nH]c1=O
fluorescence lifetime (in CC#N): 0.0001 ns

Structure (SMILES): Cc1cc(C)c(B(c2ccccc2-n2c3ccccc3c3ccccc32)c2c(C)cc(C)cc2C)c(C)c1
fluorescence lifetime (in Cc1ccccc1): 38 ns

Structure (SMILES): Cc1cc2ccccc2cc1C
fluorescence lifetime (in C1CCCCC1): 133 ns

Structure (SMILES): c1ccc(-c2nc(-c3ccccc3)nc(-c3ccc(-n4c5ccccc5c5cc6c(cc54)c4ccccc4n6-c4ccccc4)cc3)n2)cc1
fluorescence lifetime (in O=P(c1ccccc1)(c1ccccc1)c1ccc2oc3ccc(P(=O)(c4ccccc4)c4ccccc4)cc3c2c1): 13.4 ns

Structure (SMILES): c1ccc(-c2cc(-c3ccccc3)cc(-c3ccc4c(c3)C3(c5ccccc5-4)c4ccccc4-c4c3c3c5ccccc5c(-c5cc(-c6ccccc6)cc(-c6ccccc6)c5)cc3c3ccccc43)c2)cc1 (stereo not given)
fluorescence lifetime (in Cc1ccccc1): 2.14 ns

Other lines, results leading:

fluorescence lifetime (in CC1CCCCC1): 1.23 ns | fluorescence lifetime (in CC#N): 1.47 ns | fluorescence lifetime (in CO): 1.53 ns
Structure (SMILES): COC(=O)C(NC(=O)OC(C)(C)C)c1ccc2oc(-c3ccc(F)cc3)nc2c1 (stereo not given)

fluorescence lifetime (in c1cc(-c2cccc(-n3c4ccccc4c4ccccc43)c2)cc(-n2c3ccccc3c3ccccc32)c1): 54 ns
Structure (SMILES): CC(C)c1cc(C(C)C)c(B2c3cc(N4c5ccccc5Oc5ccccc54)ccc3N(c3ccccc3)c3ccc(N4c5ccccc5Oc5ccccc54)cc32)c(C(C)C)c1

fluorescence lifetime (in C1CCCCC1): 3.3 ns | fluorescence lifetime (in CC#N): 3.8 ns | fluorescence lifetime (in ClCCl): 3.4 ns
Structure (SMILES): O=S1(=O)c2ccccc2-c2cc(-c3c4ccccc4cc4ccccc34)ccc21

fluorescence lifetime (in ClC(Cl)Cl): 3.51 ns
Structure (SMILES): CCCCCCN1C(=O)c2cccc3c(-c4scc5c4OCCO5)ccc(c23)C1=O

fluorescence lifetime (in CN(C)C=O): 2.2 ns
Structure (SMILES): O=C([O-])c1c2ccccc2c(C(=O)[O-])c2ccccc12

fluorescence lifetime (in O): 2 ns
Structure (SMILES): CN(C)c1ccc2cc3ccc(N(C)C)cc3nc2c1

fluorescence lifetime (in ClC(Cl)Cl): 1.35 ns
Structure (SMILES): CCCCc1cc(-c2cccc(COC)c2)oc1-c1cccc(-c2cc(CCCC)c(-c3cccc(-c4cc(CCCC)c(-c5cccc(-c6oc(-c7cccc(-c8oc(-c9cccc(-c%10oc(-c%11cccc(COC)c%11)cc%10CCCC)c9)cc8CCCC)c7)cc6CCCC)c5)o4)c3)o2)c1

fluorescence lifetime (in C1CCCCC1): 0.941 ns | fluorescence lifetime (in C1COCCO1): 1.44 ns | fluorescence lifetime (in CC#N): 0.521 ns | fluorescence lifetime (in CN(C)C=O): 4.47 ns | fluorescence lifetime (in CO): 0.39 ns | fluorescence lifetime (in O): 0.34 ns | fluorescence lifetime (in OCC(O)CO): 4.92 ns | fluorescence lifetime (in OCCO): 2.25 ns
Structure (SMILES): COc1cc(/C=C2/SC(=O)NC2=O)cc(OC)c1O

fluorescence lifetime (in C1CCCCC1): 0.1 ns
Structure (SMILES): CC(=O)c1ccc(-c2nc3ccc(N(C)C)c(Br)c3s2)cc1

fluorescence lifetime (in CCO): 2.07 ns
Structure (SMILES): Cc1nnc(-c2ccc(-n3c4ccccc4c4ccccc43)cc2)o1

fluorescence lifetime (in ClCCl): 1.04 ns
Structure (SMILES): CCCc1c(C(=O)c2ccc3c4c(cccc24)-c2cccc4c2C3CC=C4)c2ccc3cccc4c5cccc6ccc1c(c65)c2c34 (stereo not given)

fluorescence lifetime (in CCO): 2.56 ns
Structure (SMILES): CCN(CC)c1cc2oc(=O)cc(C)c2cc1C

fluorescence lifetime (in ClCCl): 3.7 ns
Structure (SMILES): [O-][n+]1c(-c2ccc(Br)cc2)cc(N2CCOCC2)nc1/C=C/c1ccccc1

fluorescence lifetime (in ClC(Cl)Cl): 1.5 ns
Structure (SMILES): COc1ccc2c(C=C(C#N)C#N)cc3ccc4cc(C=C(C#N)C#N)c5ccc(OC)cc5c4c3c2c1

fluorescence lifetime (in ClC(Cl)Cl): 0.153 ns
Structure (SMILES): CN(C)c1ccc(/C=C/c2cc[n+](C)cc2)cc1

fluorescence lifetime (in ClCCl): 13.2 ns
Structure (SMILES): CCN(CC)c1ccc2cc(-c3nc4ccccc4n3-c3ccccc3)c(=O)oc2c1

fluorescence lifetime (in C1CCOC1): 3.03 ns
Structure (SMILES): CC(C)(C)c1ccc(C2=C(c3ccc(N(c4ccccc4)c4ccccc4)cc3)S(=O)(=O)c3c2sc(-c2ccc(N(c4ccccc4)c4ccccc4)cc2)c3-c2ccc(C(C)(C)C)cc2)cc1

fluorescence lifetime (in C1CCCCC1): 2.1 ns
Structure (SMILES): CN(C)c1ccc2nc(-c3ccccc3)sc2c1

fluorescence lifetime (in ClCCl): 3.54 ns
Structure (SMILES): N#Cc1ccc(N(c2ccc(C#N)cc2)c2ccc3c4cccc5c(N(c6ccc(C#N)cc6)c6ccc(C#N)cc6)ccc(c6cccc2c63)c54)cc1

fluorescence lifetime (in ClCCl): 12.1 ns
Structure (SMILES): COc1ccc(-c2c3ccccc3c(-c3ccc(OC)cc3)c3cc4ccccc4cc23)cc1

fluorescence lifetime (in CC#N): 3.5 ns
Structure (SMILES): CCNc1cc2oc(=O)cc(C)c2cc1C

fluorescence lifetime (in CCO): 20 ns
Structure (SMILES): c1ccc2cc3cnccc3cc2c1

fluorescence lifetime (in CC#N): 6.3 ns
Structure (SMILES): c1ccc2c(c1)ncc1ccc3cnc4ccccc4c3c12

fluorescence lifetime (in ClCCl): 0.24 ns
Structure (SMILES): COc1ccc(/C=C/C2=C3CCc4ccccc4C3=[O+][B-](F)(F)O2)cc1

fluorescence lifetime (in ClCCl): 0.94 ns
Structure (SMILES): C[Si]1(C)c2cc(-c3ccc(-c4cccs4)s3)ccc2C=Cc2ccc(-c3ccc(-c4cccs4)s3)cc21

fluorescence lifetime (in C1CCOC1): 2.1 ns
Structure (SMILES): CC(C)(C)[Si](C)(C)C#CC1=CC2=c3cc(C#C[Si](C)(C)C(C)(C)C)c4nc(C(F)(F)C(F)(F)C(F)(F)F)nc5c(C#C[Si](C)(C)C(C)(C)C)cc(c3c54)C3=CC(C#C[Si](C)(C)C(C)(C)C)=C4N=C(C(F)(F)C(F)(F)C(F)(F)F)N=C1C4C32 (stereo not given)

fluorescence lifetime (in C1CCCCC1): 2 ns
Structure (SMILES): C[Si](C)(C)C#Cc1ccc(C#C[Si](C)(C)C)c2ccccc12

fluorescence lifetime (in CC1CCCO1): 100 ns
Structure (SMILES): O=S1(=O)c2ccc(-c3ccc4c(c3)c3ccccc3n4-c3ccccc3)cc2C2(c3cc(-c4ccc5c(c4)c4ccccc4n5-c4ccccc4)ccc31)c1cc(-c3ccc4c(c3)c3ccccc3n4-c3ccccc3)ccc1S(=O)(=O)c1ccc(-c3ccc4c(c3)c3ccccc3n4-c3ccccc3)cc12
